Results as given in ChEMBL document CHEMBL6127124, “Structure-Activity Relationships and Discovery of (S)-5-(tert-Butyl)-11-(difluoromethoxy)-9-methoxy-2-oxo-1,2,5,6-tetrahydropyrido[2',1':2,3]imidazo[4,5-h]quinoline-3-carboxylic Acid (AB-161), a Novel Orally Available and Liver-Centric HBV RNA Destabilizer” (J Med Chem, 2024).

What was measured:
[1] = target: Cytochrome P450 2C19 (Homo sapiens, UniProt P33261); experiment: Inhibition of CYP2C19 in human liver microsomes using S-mephenytoin as substrate preincubated for 30 min followed by NADPH addition measured after 12 mins by LC-MS/MS analysis; type: ADME, Microsome
Sequence of Cytochrome P450 2C19 (P33261 whole entry): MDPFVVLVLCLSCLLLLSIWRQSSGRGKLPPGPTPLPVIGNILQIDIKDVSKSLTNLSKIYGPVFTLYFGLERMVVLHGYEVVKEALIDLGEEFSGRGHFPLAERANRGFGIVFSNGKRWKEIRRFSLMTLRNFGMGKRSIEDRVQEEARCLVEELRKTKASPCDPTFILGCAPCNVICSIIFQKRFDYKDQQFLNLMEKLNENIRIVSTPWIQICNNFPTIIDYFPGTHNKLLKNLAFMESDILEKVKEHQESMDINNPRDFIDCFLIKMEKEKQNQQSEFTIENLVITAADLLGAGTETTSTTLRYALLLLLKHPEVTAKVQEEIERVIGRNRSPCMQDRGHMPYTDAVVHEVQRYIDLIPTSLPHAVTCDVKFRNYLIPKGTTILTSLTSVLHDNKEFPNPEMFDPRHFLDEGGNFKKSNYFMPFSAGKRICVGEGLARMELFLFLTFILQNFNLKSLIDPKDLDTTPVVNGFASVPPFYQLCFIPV

[2] = Ratio of drug concentration in lung to plasma of CD-1 mouse at 10 mg/kg, po measured for 24 hrs by LC-MS/MS analysis; type: ADME, organism-based; conditions: lung and plasma
[3] = Selectivity ratio of drug concentration in liver in CD-1 mouse at 0.2 mg/kg, po measured for 24 hrs to EC90 for antiviral activity against HBV infected in human HepG2.2.15 cells assessed as reduction in HBsAg level; type: ADME, organism-based; conditions: in vivo
[4] = Drug concentration in Sprague-Dawley rat kidney at 5 mg/kg, po measured for 24 hrs by LC-MS/MS analysis; type: ADME, organism-based; conditions: read-out: Ct
[5] = Drug concentration in Sprague-Dawley rat plasma at 5 mg/kg, po measured for 24 hrs by LC-MS/MS analysis; type: ADME, organism-based; conditions: read-out: Ct
[6] = Ratio of drug concentration in heart to plasma of Sprague-Dawley rat at 5 mg/kg, po measured for 24 hrs by LC-MS/MS analysis; type: ADME, organism-based
[7] = Drug concentration in CD-1 mouse heart at 10 mg/kg, po measured for 24 hrs by LC-MS/MS analysis; type: ADME, organism-based; conditions: read-out: Ct
[8] = tested on: Hepatitis B virus; experiment: Antiviral activity against HBV genotype D in immuno-competent C57BL/6 mouse model of chronic HBV assessed as log10 reduction in serum HBsAg production at 30 mg/kg, po qd for 14 days measured 24 hrs post-last dose by EIA relative to control; type: functional; conditions: time 15 day
[9] = tested on: Hepatitis B virus; experiment: Antiviral activity against HBV genotype D in immuno-competent C57BL/6 mouse model of chronic HBV assessed as log10 reduction in serum HBsAg production at 0.3 mg/kg, po qd for 14 days measured 24 hrs post-last dose by EIA relative to control; type: functional; conditions: time 15 day
[10] = Drug concentration in CD-1 mouse lung at 10 mg/kg, po measured for 24 hrs by LC-MS/MS analysis; type: ADME, organism-based; conditions: read-out: Ct
[11] = Drug concentration in Sprague-Dawley rat heart at 5 mg/kg, po measured for 24 hrs by LC-MS/MS analysis; type: ADME, organism-based
[12] = Ratio of total drug concentration in liver to plasma in CD-1 mouse at 0.2 mg/kg, po measured for 12 hrs by LC-MS/MS analysis; type: ADME, organism-based; conditions: liver and plasma
[13] = Ratio of drug concentration in heart to plasma of CD-1 mouse at 10 mg/kg, po measured for 24 hrs by LC-MS/MS analysis; type: ADME, organism-based; conditions: heart and plasma
[14] = Drug concentration in CD-1 mouse kidney at 10 mg/kg, po measured for 24 hrs by LC-MS/MS analysis; type: ADME, organism-based; conditions: read-out: Ct
[15] = target: Cytochrome P450 2D6 (Homo sapiens, UniProt P10635); experiment: Inhibition of CYP2D6 in human liver microsomes using dextromethorphan as substrate preincubated for 30 min followed by NADPH addition measured after 12 mins by LC-MS/MS analysis; type: ADME, Microsome
Sequence of Cytochrome P450 2D6 (P10635 whole entry): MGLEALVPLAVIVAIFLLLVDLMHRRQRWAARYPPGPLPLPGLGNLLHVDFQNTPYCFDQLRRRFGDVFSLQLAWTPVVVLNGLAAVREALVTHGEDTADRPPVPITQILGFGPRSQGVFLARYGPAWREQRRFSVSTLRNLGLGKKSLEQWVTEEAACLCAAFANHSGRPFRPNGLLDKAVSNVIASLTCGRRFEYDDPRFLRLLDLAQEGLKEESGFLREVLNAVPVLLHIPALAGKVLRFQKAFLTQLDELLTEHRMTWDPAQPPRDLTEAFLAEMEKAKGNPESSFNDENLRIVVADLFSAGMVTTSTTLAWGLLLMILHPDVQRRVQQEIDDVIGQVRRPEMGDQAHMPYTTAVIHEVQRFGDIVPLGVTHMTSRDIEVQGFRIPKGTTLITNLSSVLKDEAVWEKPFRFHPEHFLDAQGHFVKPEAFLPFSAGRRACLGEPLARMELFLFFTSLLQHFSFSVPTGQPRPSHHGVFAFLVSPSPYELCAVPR

[16] = Drug concentration in Sprague-Dawley rat lung at 5 mg/kg, po measured for 24 hrs by LC-MS/MS analysis; type: ADME, organism-based
[17] = Ratio of total drug concentration in liver to plasma in CD-1 mouse at 0.2 mg/kg, po measured for 24 hrs by LC-MS/MS analysis; type: ADME, organism-based; conditions: CD-1, mouse, liver and plasma
[18] = AUC (0 to 24 hrs) in CD-1 mouse at 0.2 mg/kg, po measured for 24 hrs by LC-MS/MS analysis; type: ADME, organism-based; conditions: in vivo
[19] = Drug concentration in Sprague-Dawley rat liver at 5 mg/kg, po measured for 24 hrs by LC-MS/MS analysis; type: ADME, organism-based; conditions: read-out: Ct
[20] = Plasma protein binding in dog assessed as unbound fraction at 2 uM incubated for 6 hrs by equilibrium dialysis; type: ADME, cell-free, Canis lupus familiaris
[21] = target: T1, Cytochrome P450 1A2 (Homo sapiens, UniProt P05177); experiment: Inhibition of CYP1A2 in human liver microsomes using phenacetin as substrate preincubated for 30 min followed by NADPH addition measured after 12 mins by LC-MS/MS analysis; type: ADME, Microsome
T1 sequence (P05177 whole entry): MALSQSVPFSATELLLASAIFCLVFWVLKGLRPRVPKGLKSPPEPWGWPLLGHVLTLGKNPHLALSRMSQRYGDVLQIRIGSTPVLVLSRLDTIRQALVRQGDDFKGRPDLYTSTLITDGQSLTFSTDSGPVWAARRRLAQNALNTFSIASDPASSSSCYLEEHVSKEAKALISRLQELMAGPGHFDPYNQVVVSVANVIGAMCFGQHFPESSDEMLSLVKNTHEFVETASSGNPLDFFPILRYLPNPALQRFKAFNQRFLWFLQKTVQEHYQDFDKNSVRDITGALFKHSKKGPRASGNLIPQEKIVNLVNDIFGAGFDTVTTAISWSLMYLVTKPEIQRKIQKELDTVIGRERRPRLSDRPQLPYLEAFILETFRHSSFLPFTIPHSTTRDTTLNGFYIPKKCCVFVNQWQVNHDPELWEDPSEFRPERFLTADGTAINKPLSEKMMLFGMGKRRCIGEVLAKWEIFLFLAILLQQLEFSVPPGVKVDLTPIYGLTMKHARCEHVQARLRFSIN

[22] = Ratio of drug concentration in kidney to plasma of CD-1 mouse at 10 mg/kg, po measured for 24 hrs by LC-MS/MS analysis; type: ADME, organism-based; conditions: kidney and plasma
[23] = Drug concentration in Beagle dog lung at 10 mg/kg, po measured for 12 hrs by LC-MS/MS analysis; type: ADME, organism-based, Canis lupus familiaris; conditions: read-out: Ct
[24] = target: Cytochrome P450 3A4 (Homo sapiens, UniProt P08684); experiment: Inhibition of CYP3A4 in human liver microsomes using testosterone as substrate preincubated for 30 min followed by NADPH addition measured after 12 mins by LC-MS/MS analysis; type: ADME, Microsome
Sequence of Cytochrome P450 3A4 (P08684 whole entry): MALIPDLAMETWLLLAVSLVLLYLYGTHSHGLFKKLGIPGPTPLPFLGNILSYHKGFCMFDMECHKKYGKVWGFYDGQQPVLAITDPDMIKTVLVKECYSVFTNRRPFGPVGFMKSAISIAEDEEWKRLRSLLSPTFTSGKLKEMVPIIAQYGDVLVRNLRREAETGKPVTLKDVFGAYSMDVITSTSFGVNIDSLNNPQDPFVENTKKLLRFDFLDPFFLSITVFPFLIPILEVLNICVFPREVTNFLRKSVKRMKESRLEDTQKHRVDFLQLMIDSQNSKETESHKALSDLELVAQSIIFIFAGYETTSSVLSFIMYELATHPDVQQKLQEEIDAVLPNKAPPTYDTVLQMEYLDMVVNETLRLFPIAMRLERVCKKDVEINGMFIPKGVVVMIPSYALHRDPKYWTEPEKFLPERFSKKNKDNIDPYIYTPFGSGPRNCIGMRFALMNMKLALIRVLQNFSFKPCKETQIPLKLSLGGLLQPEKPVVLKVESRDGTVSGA

[25] = Selectivity ratio of drug concentration in liver in CD-1 mouse at 0.2 mg/kg, po measured for 12 hrs to EC90 for antiviral activity against HBV infected in human HepG2.2.15 cells assessed as reduction in HBsAg level; type: ADME, organism-based; conditions: in vivo
[26] = Ratio of drug concentration in kidney to plasma of Sprague-Dawley rat at 5 mg/kg, po measured for 24 hrs by LC-MS/MS analysis; type: ADME, organism-based; conditions: kidney and plasma
[27] = Metabolic stability in Beagle dog liver microsomes assessed as clearance at 0.3 uM preincubated for 5 mins followed by NADPH addition measured upto 60 mins by LC-MS/MS analysis; type: ADME, Canis lupus familiaris, Microsome; conditions: read-out: CLH
[28] = tested on: Hepatitis B virus; experiment: Antiviral activity against HBV genotype D in immuno-competent C57BL/6 mouse model of chronic HBV assessed as log10 reduction in HBsAg production at 3 mg/kg, po qd for 7 days measured 24 hrs post-last dose by EIA (reference value: 0.67); type: functional; conditions: time 8 day
[29] = tested on: Hepatitis B virus; experiment: Antiviral activity against HBV genotype D in immuno-competent C57BL/6 mouse model of chronic HBV assessed as log10 reduction in HBsAg production at 10 mg/kg, po qd for 7 days measured 24 hrs post-last dose by EIA (reference value: 0.98); type: functional; conditions: time 8 day
[30] = in vivo, po, 5 mg/kg, 24 h, BLD = below limit of detection

IC50 [1] | Kp at 24 h [2] | concentration at 24 h [4] | concentration at 24 h [5] | concentration at 24 h [7] | concentration at 24 h [10] | Kp at 12 h [12] | Kp at 24 h [13] | concentration at 24 h [14] | IC50 [15] | Kp at 24 h [17] | AUC(0-t) at 24 h [18] | concentration at 24 h [19] | fraction unbound at 6 h, 2 µM [20] | IC50 [21] | Kp at 24 h [22] | concentration at 12 h [23] | SMILES | Ratio [3] | log(activity) [8] | log(activity) [9] | other results
22 µM | 0.4 | 6 ng/g | 6.7 ng/g | 15 ng/g | 35 ng/g | 120 | 0.2 | 23 ng/g | > 25 µM | 97 | 273 ng·h/mL | 6140 ng/g | 0.02 | > 25 µM | 0.3 | 73 ng/g | CC(C)(C)[C@@H]1Cc2c(nc3c(C(F)(F)F)cc(C4CC4)cn23)-c2[nH]c(=O)c(C(=O)O)cc21 | 51 | 1.35 | 0.35 | Kp at 24 h ([6]; Sprague-Dawley, heart and plasma): 0.2; concentration at 24 h ([11]; Sprague-Dawley, heart, read-out: Ct): 1.3 ng/g; concentration at 24 h ([16]; Sprague-Dawley, lung, read-out: Ct): 5 ng/g; IC50 [24]: > 25 µM; Ratio [25]: 572; Kp at 24 h [26]: 0.9
21 µM | 0.4 | 5.5 ng/g | 0.7 ng/g | 15 ng/g | 25 ng/g | 284 | 0.3 | 71 ng/g | > 25 µM | 116 | 148 ng·h/mL | 13900 ng/g | 0.05 | > 25 µM | 1.3 | 135 ng/g | COc1cc(OC(F)F)c2nc3c(n2c1)C[C@@H](C(C)(C)C)c1cc(C(=O)O)c(=O)[nH]c1-3 | 40 | 0.94 | 0.13 | Ratio [6, 30]: Bld; microsomal CLint at 0.3 µM [27]: 6 µL/min/mg; log(activity) [28]: 0.8; Ct [11, 30]: Bld; Ct [16, 30]: Bld; log(activity) [29]: 0.67; IC50 [24]: > 25 µM; Ratio [25]: 166; Kp at 24 h [26]: 7.9

SMILES | IC50 [1] | Kp at 24 h [2] | concentration at 24 h [4] | concentration at 24 h [5] | concentration at 24 h [7] | concentration at 24 h [10] | Kp at 12 h [12] | Kp at 24 h [13] | concentration at 24 h [14] | IC50 [15] | Kp at 24 h [17] | AUC(0-t) at 24 h [18] | concentration at 24 h [19] | fraction unbound at 6 h, 2 µM [20] | IC50 [21] | Kp at 24 h [22] | concentration at 12 h [23] | Ratio [3] | log(activity) [8] | log(activity) [9] | other results
COCCCOc1cc2c(nc1OC)-c1cc(=O)c(C(=O)O)cn1[C@H](C(C)C)C2 |  |  |  |  |  |  |  |  |  |  |  |  |  | 0.38 |  |  | 63 ng/g |  |  |  | microsomal CLint at 0.3 µM [27]: 4 µL/min/mg; log(activity) [28]: 0.68; log(activity) [29]: 0.7
